Results taken from PMC8741970, “Ablation of VLA4 in multiple myeloma cells redirects tumor spread and prolongs survival” (Scientific Reports, 2022).
“Also recorded” adds a separate entry of the source.

Assays:
[1] = biological target: activated VLA4 on the surface of the 5TGM1-GFP murine myeloma cells (Mus musculus, UniProt P09055+Q00651); experiment: Confocal microscopy of cell surface binding and internalization of Cy5-labelled probes; settings: WT 5TGM1-GFP cells
Experimental: Blue, green and red colors represent nuclear stain, GFP, and Cy5 signal, respectively in all images (60x; scale bar: 20 µm). […] BIO5192 (100 nM) was used to evaluate non-specific binding.
WT 5TGM1-GFP cells were plated on 35 mm glass bottom MatTek dishes pre-coated with poly-D-lysine (glass no. 1.5; MatTek Corporation, MA) at 10^5 cells/cm^2 and allowed to attach for 1 h at 37 °C. Cells were incubated with the Cy5-labelled probes (1 µM) at 4 °C for 15 min, and at 37 °C for 2.5 h to assess cell surface binding specificity and cellular internalization, respectively. Hoechst 34,580 (10 µg/L, Invitrogen, CA) was added for the last 15 min of incubation to counterstain cell nuclei. Fluorescence confocal microscopy was performed on a Nikon A1Rsi confocal microscope (Nikon Corporation, Tokyo, Japan) with 60X and 100X oil immersion objectives using excitation-emission settings at 405 nm-450/40 nm (Hoechst 34,580), 488 nm-530/20 nm (GFP), and 640–660/20 nm (Cy5).

[2] = system: B-lymphocytes; experiment: Binding studies with MM patient BM samples, B-lymphocytes; set-up: species or system human
Experimental: (§1) Purified cells were > 97% for CD38 + CD138 + plasma cells.
(§2) The data were analyzed on FlowJo software. The appropriate isotype antibodies were used as controls.

[3] = system: 5TGM1-GFP tumors in C57Bl/KaLwRij mice; experiment: In vivo and ex vivo NIR fluorescence imaging in the 5TGM1/KaLwRij i.v. MM model; set-up: species or system mouse
Experimental: All animal studies were conducted according to protocols approved by the Washington University Animal Studies Committee. Mice were anesthetized for all treatments and imaging with 2% v/v isoflurane/100% O2. Female 1–3 month-old C57Bl/6 KaLwRij mice were injected intravenously (i.v.) with 10^6 5TGM1-GFP cells in 100 µL 1 × PBS via the lateral tail vein. Imaging studies were performed 3–4 weeks after tumor implantation. Prior to imaging, hair was removed by gentle clipping and depilatory cream to improve light transmission. Supplemental Fig. S1. […] The images were background subtracted and gated by fluorescence lifetime to minimize autofluorescence and diet-related non-specific fluorescence[65],[66].
Supplementary Fig. 4. Mice were anesthetized for all imaging with 2% v/v isoflurane/100% O2. Female (n = 2)1–3 month old C57Bl/6 KaLwRij mice were injected with 1 × 10^6 5TGM1-GFP WT in 100 µL PBS via the lateral tail-vein. In vivo 3D fluorescence imaging in Supplemental Fig. 3A was performed on IVIS Spectrum CT (PerkinElmer, Waltham, MA) with auto-exposure settings in the GFP wavelength (Ex./Em. 480 nm/520 nm) filter pair.
Supplementary Fig. 5. Mice were anesthetized for all imaging with 2% v/v isoflurane/100% O2. Female 1–3 month old C57Bl/6 KaLwRij mice were injected with 1 × 10^6 5TGM1-GFP WT (n = 11) or KO (n = 12) cells in 100 µL PBS via the lateral tail-vein.
2D analysis and 3D in vivo and ex vivo reconstructions were performed using the Living Image 4.7.1 analysis software. Background fluorescence was subtracted automatically via the “Adaptive Background Subtraction” module within the Living Image 4.7.1 program. Analysis of 2D ex vivo fluorescent images was performed by measuring Total Radiant Efficiency (TRE) (photons/sec/cm^2/sr)/(μW/cm^2) from ROIs drawn around bone and muscle tissue in the GFP and Cy5 images. Tissue to muscle ratio was calculated by dividing TREs of tissue by TREs of muscle tissue of each respective mouse.
(§3) [picture] Supplementary Figure 4. […] In vivo 3D fluorescence imaging was performed on IVIS Spectrum CT (PerkinElmer, Waltham, MA) with auto-exposure settings in the GFP wavelength (Ex./Em. 480nm/520nm) filter pair. […] GFP^+ cells were co-stained with PE-conjugated anti-mouse CD49d and eFluor450-conjugated anti-mouse CD29 antibodies (middle; Thermo Fisher Scientific) to identify VLA4^+ cells.

[4] = biological target: activated VLA4 on CD138+CD38+ MM PCs (Homo sapiens, UniProt P05556+P13612); settings: nineteen de-identified BM samples from myeloma patients (13/19); HBSS with Ca2+, Mg2+, 0.1% BSA
activated VLA4 on CD138+CD38+ MM PCs, sequence (P13612 34-1032): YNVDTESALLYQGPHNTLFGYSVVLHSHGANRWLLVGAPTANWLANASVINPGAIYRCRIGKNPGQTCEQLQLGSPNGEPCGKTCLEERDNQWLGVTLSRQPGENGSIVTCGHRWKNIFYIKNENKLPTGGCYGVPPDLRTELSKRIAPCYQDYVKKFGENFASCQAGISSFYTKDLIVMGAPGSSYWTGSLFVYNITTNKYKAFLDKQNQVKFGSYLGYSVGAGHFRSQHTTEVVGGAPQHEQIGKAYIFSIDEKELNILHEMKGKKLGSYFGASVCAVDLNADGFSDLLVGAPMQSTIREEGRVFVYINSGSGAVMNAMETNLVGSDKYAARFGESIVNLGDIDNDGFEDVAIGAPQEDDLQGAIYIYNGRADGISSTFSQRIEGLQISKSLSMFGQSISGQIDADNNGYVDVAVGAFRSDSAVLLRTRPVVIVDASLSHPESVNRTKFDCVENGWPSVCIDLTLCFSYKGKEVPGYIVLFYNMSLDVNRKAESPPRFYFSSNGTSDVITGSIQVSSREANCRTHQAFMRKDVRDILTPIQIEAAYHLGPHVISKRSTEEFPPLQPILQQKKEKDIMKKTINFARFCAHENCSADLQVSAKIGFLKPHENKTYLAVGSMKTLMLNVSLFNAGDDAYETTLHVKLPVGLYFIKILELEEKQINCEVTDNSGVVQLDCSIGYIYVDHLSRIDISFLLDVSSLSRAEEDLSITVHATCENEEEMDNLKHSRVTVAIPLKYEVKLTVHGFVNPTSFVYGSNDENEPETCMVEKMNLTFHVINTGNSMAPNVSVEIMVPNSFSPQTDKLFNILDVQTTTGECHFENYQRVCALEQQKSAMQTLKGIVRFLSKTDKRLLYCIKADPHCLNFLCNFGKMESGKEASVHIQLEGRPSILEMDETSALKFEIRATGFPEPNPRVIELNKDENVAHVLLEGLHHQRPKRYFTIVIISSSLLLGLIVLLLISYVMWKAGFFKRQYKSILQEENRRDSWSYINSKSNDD
activated VLA4 on CD138+CD38+ MM PCs, sequence (P05556 21-798): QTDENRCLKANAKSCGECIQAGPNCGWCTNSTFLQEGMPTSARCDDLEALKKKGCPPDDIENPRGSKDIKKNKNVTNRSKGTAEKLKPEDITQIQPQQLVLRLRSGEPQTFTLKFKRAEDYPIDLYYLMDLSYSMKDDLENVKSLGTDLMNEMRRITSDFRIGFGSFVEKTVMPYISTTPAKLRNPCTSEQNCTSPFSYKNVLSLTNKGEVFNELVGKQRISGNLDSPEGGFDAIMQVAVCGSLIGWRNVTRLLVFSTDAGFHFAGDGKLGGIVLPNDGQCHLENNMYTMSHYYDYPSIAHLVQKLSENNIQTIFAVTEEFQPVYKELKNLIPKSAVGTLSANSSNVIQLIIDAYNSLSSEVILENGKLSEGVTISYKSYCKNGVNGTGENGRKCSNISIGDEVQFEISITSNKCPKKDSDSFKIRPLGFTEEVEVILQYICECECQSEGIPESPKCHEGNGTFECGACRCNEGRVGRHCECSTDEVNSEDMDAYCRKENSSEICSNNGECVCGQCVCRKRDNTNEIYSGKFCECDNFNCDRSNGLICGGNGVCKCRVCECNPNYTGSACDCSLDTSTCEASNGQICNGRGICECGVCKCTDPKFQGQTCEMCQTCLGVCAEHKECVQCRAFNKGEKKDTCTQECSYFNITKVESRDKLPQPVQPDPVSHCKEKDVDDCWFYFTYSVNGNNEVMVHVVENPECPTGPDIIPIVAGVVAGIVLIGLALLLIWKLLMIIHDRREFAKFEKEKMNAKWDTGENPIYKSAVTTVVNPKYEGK
Experimental: […] The human and mouse FC receptors were blocked by human BD Fc block and mouse BD Fc block, respectively. The cell suspension was incubated with fluorochrome-conjugated monoclonal antibodies in dark, at room temperature, for 30 min. Cells were washed twice with buffer afterward, and then proceeded analysis on a Beckman Coulter Gallios flow cytometer. The dead cells were excluded by using 7-amino-actinonycin D (7-AAD). The data were analyzed on FlowJo software. The appropriate isotype antibodies were used as controls.

[5] = system: VLA4 expressing cells in BM and spleen of 5TGM1-GFP tumor mice; experiment: FACS of ex vivo tissue samples after LLP2A-Cy5 injection; type: in vivo, mouse; settings: after i.v. LLP2A-Cy5
Experimental: as §2, §3

[6] = system: VLA4 KO 5TGM1-GFP cells; experiment: Flow cytometry binding to Itga4 KO 5TGM1-GFP cells; set-up: species or system murine; settings: for binding to KO cells (flow cytometry gate): 1.5 × 10^5 Itga4 KO 5TGM1-GFP cells, no BIO5192; for binding to KO cells after pre-incubation with BIO5192: Itga4 KO 5TGM1-GFP cells, pre-incubation with an established therapeutic dose of BIO5192
Experimental: (§4) The single cells were suspended in phosphate-buffered saline (PBS) with 0.1% bovine serum albumin as buffer. The human and mouse FC receptors were blocked by human BD Fc block and mouse BD Fc block, respectively. The cell suspension was incubated with fluorochrome-conjugated monoclonal antibodies in dark, at room temperature, for 30 min. Cells were washed twice with buffer afterward, and then proceeded analysis on a Beckman Coulter Gallios flow cytometer. The dead cells were excluded by using 7-amino-actinonycin D (7-AAD). The data were analyzed on FlowJo software. The appropriate isotype antibodies were used as controls.

[7] = biological target: T1, VLA4 on WT 5TGM1-GFP cells (Mus musculus, UniProt P09055+Q00651); experiment: Flow cytometry binding to WT 5TGM1-GFP cells; set-up: species or system murine; settings: for binding to WT cells (flow cytometry gate): 1.5 × 10^5 WT 5TGM1-GFP cells, no BIO5192; for binding to WT cells after pre-incubation with BIO5192: WT 5TGM1-GFP cells, pre-incubation with an established therapeutic dose of BIO5192
T1 construct: endogenous in cells; host or cells: WT 5TGM1-GFP murine myeloma cells
T1 sequence (Q00651 34-1039 limits assumed): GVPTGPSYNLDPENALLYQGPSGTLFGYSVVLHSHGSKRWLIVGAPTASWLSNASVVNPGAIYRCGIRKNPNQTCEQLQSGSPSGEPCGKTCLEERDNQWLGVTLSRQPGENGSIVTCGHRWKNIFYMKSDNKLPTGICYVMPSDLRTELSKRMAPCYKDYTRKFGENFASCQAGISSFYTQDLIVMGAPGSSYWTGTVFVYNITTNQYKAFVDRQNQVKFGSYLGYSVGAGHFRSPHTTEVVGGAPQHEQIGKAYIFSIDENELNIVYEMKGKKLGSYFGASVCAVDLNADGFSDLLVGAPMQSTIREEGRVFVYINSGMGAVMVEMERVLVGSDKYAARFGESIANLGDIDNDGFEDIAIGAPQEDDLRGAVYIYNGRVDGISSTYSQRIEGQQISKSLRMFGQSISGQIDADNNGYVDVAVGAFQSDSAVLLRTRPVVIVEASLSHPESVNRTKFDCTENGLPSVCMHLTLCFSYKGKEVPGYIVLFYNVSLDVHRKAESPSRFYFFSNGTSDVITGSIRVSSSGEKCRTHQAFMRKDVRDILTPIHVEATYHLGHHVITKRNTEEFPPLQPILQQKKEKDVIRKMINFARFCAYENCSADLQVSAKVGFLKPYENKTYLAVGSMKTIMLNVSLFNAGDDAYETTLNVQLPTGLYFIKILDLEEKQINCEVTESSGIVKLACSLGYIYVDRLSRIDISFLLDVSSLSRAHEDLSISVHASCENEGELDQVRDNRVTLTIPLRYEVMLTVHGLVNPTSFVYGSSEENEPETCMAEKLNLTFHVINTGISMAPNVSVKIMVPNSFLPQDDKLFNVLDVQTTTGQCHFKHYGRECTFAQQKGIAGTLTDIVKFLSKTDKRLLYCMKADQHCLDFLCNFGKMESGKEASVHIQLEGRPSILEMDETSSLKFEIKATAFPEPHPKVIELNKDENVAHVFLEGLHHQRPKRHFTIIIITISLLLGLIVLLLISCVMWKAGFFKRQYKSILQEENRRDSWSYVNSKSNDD
T1 sequence (P09055 21-798): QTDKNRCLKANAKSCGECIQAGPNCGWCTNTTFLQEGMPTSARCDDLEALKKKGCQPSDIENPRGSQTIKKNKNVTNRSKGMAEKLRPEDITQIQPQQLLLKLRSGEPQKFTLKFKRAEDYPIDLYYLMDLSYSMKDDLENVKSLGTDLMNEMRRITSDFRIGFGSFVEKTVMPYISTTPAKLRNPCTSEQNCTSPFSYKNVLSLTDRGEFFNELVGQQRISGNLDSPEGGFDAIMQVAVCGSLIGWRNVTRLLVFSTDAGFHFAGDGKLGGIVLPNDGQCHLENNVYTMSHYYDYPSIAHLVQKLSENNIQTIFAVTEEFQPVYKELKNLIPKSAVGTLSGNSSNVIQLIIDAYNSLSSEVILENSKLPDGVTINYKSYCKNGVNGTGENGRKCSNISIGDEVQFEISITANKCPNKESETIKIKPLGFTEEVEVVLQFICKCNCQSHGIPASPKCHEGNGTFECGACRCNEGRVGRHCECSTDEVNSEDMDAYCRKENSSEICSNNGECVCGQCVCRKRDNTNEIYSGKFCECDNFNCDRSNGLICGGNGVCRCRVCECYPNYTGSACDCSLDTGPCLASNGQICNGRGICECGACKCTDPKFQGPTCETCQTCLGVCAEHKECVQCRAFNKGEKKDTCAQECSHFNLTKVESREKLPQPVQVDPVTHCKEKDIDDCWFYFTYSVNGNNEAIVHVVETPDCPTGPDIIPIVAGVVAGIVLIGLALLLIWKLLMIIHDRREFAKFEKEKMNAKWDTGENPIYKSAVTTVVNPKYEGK
Experimental: as §4

[8] = system: T-lymphocytes; experiment: Binding studies with MM patient BM samples, T-lymphocytes; set-up: species or system human
Experimental: as §1, §2

[9] = system: monocytes; experiment: Binding studies with MM patient BM samples, monocytes; set-up: species or system human
Experimental: as §1, §2

[10] = biological target: activated VLA4 on U266 (Homo sapiens, UniProt P05556+P13612); settings: U266, flow cytometry
activated VLA4 on U266, sequence (P13612 34-1032): as the sequence (P13612 34-1032) above
activated VLA4 on U266, sequence (P05556 21-798): as the sequence (P05556 21-798) above
Experimental: as §4

[11] = biological target: activated VLA4 on H929 (Homo sapiens, UniProt P05556+P13612); settings: H929, flow cytometry
activated VLA4 on H929, sequence (P13612 34-1032): as the sequence (P13612 34-1032) above
activated VLA4 on H929, sequence (P05556 21-798): as the sequence (P05556 21-798) above
Experimental: as §4

[12] = biological target: activated VLA4 on 5TGM1 (Mus musculus, UniProt P09055+Q00651); settings: 5TGM1, flow cytometry
activated VLA4 on 5TGM1, sequence (Q00651 34-1039 limits assumed): as the sequence (Q00651 34-1039 limits assumed) above
activated VLA4 on 5TGM1, sequence (P09055 21-798): as the sequence (P09055 21-798) above
Experimental: as §4

[13] = biological target: activated VLA4 on MM1.S (Homo sapiens, UniProt P05556+P13612); settings: flow cytometry
activated VLA4 on MM1.S, sequence (P13612 34-1032): as the sequence (P13612 34-1032) above
activated VLA4 on MM1.S, sequence (P05556 21-798): as the sequence (P05556 21-798) above
Experimental: as §4

[14] = biological target: activated VLA4 on OPM2 (Homo sapiens, UniProt P05556+P13612); settings: OPM2, flow cytometry
activated VLA4 on OPM2, sequence (P13612 34-1032): as the sequence (P13612 34-1032) above
activated VLA4 on OPM2, sequence (P05556 21-798): as the sequence (P05556 21-798) above
Experimental: as §4

[15] = biological target: activated VLA4 on RPMI-8226 (Homo sapiens, UniProt P05556+P13612); settings: RPMI-8226, flow cytometry
activated VLA4 on RPMI-8226, sequence (P13612 34-1032): as the sequence (P13612 34-1032) above
activated VLA4 on RPMI-8226, sequence (P05556 21-798): as the sequence (P05556 21-798) above
Experimental: as §4

[16] = ex vivo biodistribution 18 h after i.v. 100 µL of 25 µM LLP2A-Cy5, 5TGM1-GFP WT tumor mice, 3 weeks post inoculation, mean ± SD

activated VLA4 on the surface of the 5TGM1-GFP murine myeloma cells, sequence (Q00651 34-1039 limits assumed): as the sequence (Q00651 34-1039 limits assumed) above
activated VLA4 on the surface of the 5TGM1-GFP murine myeloma cells, sequence (P09055 21-798): as the sequence (P09055 21-798) above

Molecule: Cc1ccccc1NC(=O)Nc1ccc(CC(=O)N[C@@H](CCCCNC(=O)/C=C/c2cccnc2)C(=O)N[C@@H](CCCC(=O)O)C(=O)NC2(C(N)=O)CCCCC2)cc1 [LLP2A-Cy5]
- cellular localization after extended incubation ([1]; 1 µM, 37 °C, 2.5 h, confocal 3D z-stack): dominant cell membrane binding; also recorded: strong cell surface binding with minimal internalization
- fold reduction of cell surface binding on blocking with excess unlabeled peptide ([1]; LLP2A-Cy5 1 µM co-incubated with 100-fold excess LLP2A-PEG4 (100 µM), 15 min, 4 °C, confocal microscopy): 3.07 ± 0.3 fold
- percentage of LLP2A-Cy5+ cells [2]: 23.3%
- relative median fluorescence (RMFI) [2]: 1.7
- uptake in KO tumor foci compared with WT ([3]; KaLwRij mice with Itga4 KO versus WT 5TGM1-GFP tumors, ex vivo fluorescence imaging 18 h after LLP2A-Cy5): significantly reduced uptake
- femur-muscle fluorescence ratio [3, 16]: 7.0 ± 2.5
- spleen-muscle fluorescence ratio [3, 16]: 2.6 ± 0.7
- time post-injection at which tumor contrast peaked ([3]; noninvasive fluorescence imaging before, 4 and 18 h after i.v. 100 µL of 25 µM LLP2A-Cy5): ~ 18 h
- share of patient samples in which LLP2A-Cy5 stained over 20% of CD138+CD38+ MM PCs [4]: 68%
- % LLP2A-Cy5+ cells in the BM ([5]; ex vivo BM, GFP+ tumor cells (97.5% VLA4+)): 84.7%
- % LLP2A-Cy5+ cells in the hematopoietic BM niche ([5]; hematopoietic BM niche (63.6% VLA4+)): 53.2%
- binding to KO cells (flow cytometry gate) [6]: 0.6%
- binding to KO cells after pre-incubation with BIO5192 [6]: 0.52%
- binding to WT cells (flow cytometry gate) [7]: 100%
- binding to WT cells after pre-incubation with BIO5192 [7]: 0.95%
- percentage of LLP2A-Cy5+ cells [8]: 36.3%
- relative median fluorescence (RMFI) [8]: 2.2
- percentage of LLP2A-Cy5+ cells [9]: 58.2%
- relative median fluorescence (RMFI) [9]: 3.0
- % LLP2A-Cy5+ [10]: 100%
- LLP2A-Cy5+ median fluorescence intensity (MFI) [10]: 16.1
- % LLP2A-Cy5+ [11]: 63.3%
- LLP2A-Cy5+ median fluorescence intensity (MFI) [11]: 3.4
- % LLP2A-Cy5+ [12]: 100%
- LLP2A-Cy5+ median fluorescence intensity (MFI) [12]: 23.4
- % LLP2A-Cy5+ [13]: 22.4%
- LLP2A-Cy5+ median fluorescence intensity (MFI) [13]: 2.1
- % LLP2A-Cy5+ [14]: 80.1%
- LLP2A-Cy5+ median fluorescence intensity (MFI) [14]: 4.6
- % LLP2A-Cy5+ [15]: 59.5%
- LLP2A-Cy5+ median fluorescence intensity (MFI) [15]: 3.2

B1: sVCAM-1: soluble vascular cell adhesion molecule-1, natural ligand of VLA4 (protein, UniProt P19320 25-698, looked up)
extracellular domain: FKIETTPESRYLAQIGDSVSLTCSTTGCESPFFSWRTQIDSPLNGKVTNEGTTSTLTMNPVSFGNEHSYLCTATCESRKLEKGIQVEIYSFPKDPEIHLSGPLEAGKPITVKCSVADVYPFDRLEIDLLKGDHLMKSQEFLEDADRKSLETKSLEVTFTPVIEDIGKVLVCRAKLHIDEMDSVPTVRQAVKELQVYISPKNTVISVNPSTKLQEGGSVTMTCSSEGLPAPEIFWSKKLDNGNLQHLSGNATLTLIAMRMEDSGIYVCEGVNLIGKNRKEVELIVQEKPFTVEISPGPRIAAQIGDSVMLTCSVMGCESPSFSWRTQIDSPLSGKVRSEGTNSTLTLSPVSFENEHSYLCTVTCGHKKLEKGIQVELYSFPRDPEIEMSGGLVNGSSVTVSCKVPSVYPLDRLEIELLKGETILENIEFLEDTDMKSLENKSLEMTFIPTIEDTGKALVCQAKLHIDDMEFEPKQRQSTQTLYVNVAPRDTTVLVSPSSILEEGSSVNMTCLSQGFPAPKILWSRQLPNGELQPLSENATLTLISTKMEDSGVYLCEGINQAGRSRKEVELIIQVTPKDIKLTAFPSESVKEGDTVIISCTCGNVPETWIILKKKAETGDTVLKSIDGAYTIRKAQLKDAGVYECESKNKVGSQLRSLTLDVQGRENNKDYFSPE
modifications: extracellular domain
notes: soluble vascular cell adhesion molecule-1, natural ligand of VLA4
- binding to KO cells (flow cytometry gate) [6]: 1.65 ± 0.07%
- binding to KO cells after pre-incubation with BIO5192 [6]: 2.51%
- binding to WT cells (flow cytometry gate) [7]: 97.7%
- binding to WT cells after pre-incubation with BIO5192 [7]: 3.33%
